Laboratory results from US4338330A, “Benzimidazole derivatives, their use, and compositions containing these derivatives” (Continental Pharma, priority 1979, dated 1982).
Counter-ions that a name gives are not always drawn. Like-named read-outs stand apart in the source and are kept apart here.

Key:
[1] = system: guinea pig ileum contractions induced by acetylcholine; assay: Antispasmodic activity against ileum contractions induced by acetylcholine
Experimental: (§1) The antispasmodic activity of the studied substances was examined against guinea pig ileum contractions induced by histamine and acetylcholine.
(§2) These experiences allow to make it obvious an antihistaminic, anticholinergic or musculotrope activity. The response to the contracting agent (sub-maximum concentration) is obtained every 5 minutes before and after injection of increasing concentrations of tested products (10^-7 M to 10^-4 M). The inhibition percentage under the influence of tested products is calculated and the theoretical concentration giving 50% of inhibition is graphically determined for each experience. These values are expressed in -log CI50 (M).

[2] = LD50 in mice, oral (Lichtfield and Wilcoxon method); format: in vivo
Experimental: LD50 were determined according to the Lichtfield and Wilcoxon method (J. Pharmacol. Exp. Ther. 96, 99, 1949) and expressed in mg/kg. The products were administered to mice orally.

[3] = system: isolated guinea pig auricles; assay: Chronotrope effect of the substance on isolated auricles; conditions: 10^-6 M, 20 minutes, Tyrode, 29° C.
Experimental: The β-lytic effect was searched on the chronotropic response to noradrenaline of isolated guinea pig auricles. Auricles were incubated for 20 minutes in a Tyrode solution at 29° C. in the presence of the substance to be tested at the concentration of 10^-6 M. A positive (+) or negative (-) chronotrope effect of the substance was noted using the following scores: […]

[4] = Peripheral vasodilator activity, anesthetized dog, femoral arterial circulation; format: in vivo; conditions: 30 μg/kg injected directly
Experimental: The peripheral vasodilator activity was measured on anesthetized dog at the level of femoral arterial circulation. To this end, the femoral artery the collaterals of which have been ligated is perfused at constant rate with blood taken from aorta. The perfusion pressure measured at the level of the femoral artery thus varies as a function of the resistance of the perfused area. The tested products and the corresponding solvents are directly injected at the dose of 30 μg/kg. The cardiac output being maintained constant, a vasodilation is thus measured by a decrease of the perfusion pressure. The latter is scored in comparison with the action of papaverine, considered as a reference and injected one time by group of 4 products. When interesting, the products are tested with other doses under the same conditions.
The vasodilator activity is appreciated as follows: […]

[5] = Antihypertensive activity, oral, unanesthetized spontaneously hypertensive rats; format: in vivo
Experimental: […] Only rats having a systolic pressure of 180 to 220 mm Hg are used. Two rats are used by product. The treatments are administered without the knowledge of the person making the measure.
The antihypertensive effects were recorded according to a score followed by an index. The scoring system is as follows.
The index is calculated by multiplying the systolic pressure difference (cmHg) measured every 30 minutes after the treatment, by a coefficient of 1 to 6 corresponding to times of 30 to 180 minutes.

[6] = system: chronotropic response to noradrenaline of isolated guinea pig auricles; assay: β-lytic effect on the chronotropic response to noradrenaline of isolated auricles
Experimental: The β-lytic effect was searched on the chronotropic response to noradrenaline of isolated guinea pig auricles. Auricles were incubated for 20 minutes in a Tyrode solution at 29° C. in the presence of the substance to be tested at the concentration of 10^-6 M. A positive (+) or negative (-) chronotrope effect of the substance was noted using the following scores:
Then, the chronotrope effect of cumulative increasing concentrations of noradrenaline was recorded. The pD2 (-log CE50) value was calculated. A score of β-lytic activity of the substance was given as follows:
If the score at concentration of 10^-6 M was 3 or 4, the effect of the substance was examined at concentration of 10^-7 M and a score was recorded according to the same procedure.

[7] = system: guinea pig ileum contractions induced by histamine; assay: Antispasmodic activity against ileum contractions induced by histamine
Experimental: as §1, §2

[8] = system: β1 cardiac receptors versus β2 tracheal receptors; assay: Cardioselectivity (auricles versus trachea); design: species or system guinea pig; conditions: from difference of pA2 on auricles and trachea
Experimental: The effect on β1 cardiac receptors is measured by inhibition of the chronotropic response to noradrenaline of guinea pig auricles and of the inotrope response to isoproterenol of guinea pig left auricles which were electrically stimulated. The cardioselectivity is appreciated by measuring the antagonist effect at the level of β2 receptors of the guinea pig trachea. To this end, a tracheal chain is contracted by a maximum concentration of histamine and inhibition of relaxation by isoproterenol is measured. The values calculated for cardioselectivity are obtained by considering the difference between pA2 values of the chronotrope response and the relaxation on the one hand (1st column) and of the inotrope response and relaxation on the other hand (2nd column). For these various experiences, pA2 is calculated according to the Van Rossum method (Arch. Inern. Pharmacodyn., 143, 299-330, 1963).

[9] = mouse, in vivo, po, read-out: LD50
[10] = 60 mg/kg oral, spontaneously hypertensive rats
[11] = 60 mg/kg oral, systolic pressure difference (cmHg) every 30 min multiplied by time coefficient 1 to 6

| Compound | Antispasmodic activity, Ac. Chol. (-log CI50 (M)) [1] | LD50 [2, 9] | Chronotrope effect (score) [3] | Peripheral vasodilator activity [4] | Antihypertensive activity (score) [5, 10] | Antihypertensive activity (index) [5, 11] | β-lytic effect (score) ([6]; 10^-6 M) | Antispasmodic activity, Hist. (-log CI50 (M)) [7] | LD50 [2] | Antihypertensive activity (index) ([5]; at 10 mg, oral) | Antihypertensive activity (score) ([5]; at 10 mg, oral) | β-lytic effect (score) ([6]; 10^-7 M) | times more active on β cardiac receptors than on β2 receptors [8] |
| --- | --- | --- | --- | --- | --- | --- | --- | --- | --- | --- | --- | --- | --- |
| OC(CNCCOc1ccccc1)COc1ccc(-c2nc3ccccc3[nH]2)cc1 (stereo not drawn) [Compound 3, 2-{4-[3-(2-phenoxyethylamino)-2-hydroxypropoxy]phenyl}benzimidazole] | 6.43 -log CI50 (M) | > 3000 mg/kg | 0 (if the frequency modification was comprised between +6 and -6) | active | +++ (reduction of 30 to 50 mm Hg) | 50 | 2 (if 6.40≥pD2 ≥6.01) | 6.52 -log CI50 (M) | – | – | – | – | – |
| OC(CNCCCCc1ccccc1)COc1ccc(-c2nc3ccccc3[nH]2)cc1 (stereo not drawn) [Compound 6] | 7.12 -log CI50 (M) | > 3000 mg/kg | -1 | active | 0 (reduction <10 mm Hg) | – | 0 (if pD2 ≥6.81) | 6.89 -log CI50 (M) | – | – | – | – | – |
| CC(CCc1ccccc1)NCC(O)COc1ccc(-c2nc3ccccc3[nH]2)cc1 (stereo not drawn) [Compound 7] | 6.23 -log CI50 (M) | > 3000 mg/kg | 0 (if the frequency modification was comprised between +6 and -6) | active | + (reduction of 10 to 20 mm Hg) | 18 | 0 (if pD2 ≥6.81) | 6.25 -log CI50 (M) | – | – | – | – | – |
| CC(C)NCC(O)COc1ccc(-c2nc3ccccc3[nH]2)cc1 (stereo not drawn) [Compound 11, 2-[4-(3-isopropylamino-2-hydroxypropoxy)phenyl]benzimidazole (dihydrated glucuronate)] | 4.30 -log CI50 (M) | – | 1 | – | – | – | 4 (if pD2 ≤5.50) | 4.52 -log CI50 (M) | 1494 mg/kg | 51 | +++ (reduction of 30 to 50 mm Hg) | – | – |
| CC(C)NCC(O)COc1ccc(-c2nc3ccccc3[nH]2)cc1 (stereo not drawn) [Compound 12, 2-[4-(3-isopropylamino-2-hydroxypropoxy)phenyl]benzimidazole] | 4.75 -log CI50 (M) | – | 0 (if the frequency modification was comprised between +6 and -6) | – | ++++ (reduction>50 mm Hg) | 160 | 4 (if pD2 ≤5.50) | 4.60 -log CI50 (M) | 1950 mg/kg | – | – | 2 (if 6.40≥pD2 ≥6.01) | – |
| CC(CCc1ccc2c(c1)OCO2)NCC(O)COc1ccc(-c2nc3ccccc3[nH]2)cc1 (stereo not drawn) [Compound 13] | 6.15 -log CI50 (M) | > 1000 mg/kg | 0 (if the frequency modification was comprised between +6 and -6) | – | 0 (reduction <10 mm Hg) | – | 2 (if 6.40≥pD2 ≥6.01) | 6.46 -log CI50 (M) | – | – | – | – | – |
| Cc1ccc2[nH]c(-c3ccc(OCC(O)CNC(C)C)cc3)nc2c1 (stereo not drawn) [Compound 14, 2-[4-(3-isopropylamino-2-hydroxypropoxy)phenyl]-5(6)-methylbenzimidazole (hydrochloride)] | 5.10 -log CI50 (M) | 1450 mg/kg | 1 | – | ++++ (reduction>50 mm Hg) | 83 | 4 (if pD2 ≤5.50) | 4.85 -log CI50 (M) | – | – | – | 2 (if 6.40≥pD2 ≥6.01) | – |
| Cc1cc2nc(-c3ccc(OCC(O)CNC(C)C)cc3)[nH]c2cc1C (stereo not drawn) [Compound 15] | 5.38 -log CI50 (M) | 1450 mg/kg | 0 (if the frequency modification was comprised between +6 and -6) | – | ++++ (reduction>50 mm Hg) | 110 | 3 (if 6.00≥pD2 ≥5.51) | 5.45 -log CI50 (M) | – | – | – | 1 (if 6.80≥pD2 ≥6.41) | – |
| CC(C)NCC(O)COc1ccc(-c2nc3cc(Cl)ccc3[nH]2)cc1 (stereo not drawn) [Compound 16] | 5.25 -log CI50 (M) | 1100 mg/kg | 0 (if the frequency modification was comprised between +6 and -6) | – | ++++ (reduction>50 mm Hg) | 90 | 3 (if 6.00≥pD2 ≥5.51) | 5.58 -log CI50 (M) | – | – | – | 1 (if 6.80≥pD2 ≥6.41) | – |
| OC(CNCCCCSc1ccccc1)COc1ccc(-c2nc3ccccc3[nH]2)cc1 (stereo not drawn) [Compound 23] | 5,74 -log CI50 (M) | – | 0 (if the frequency modification was comprised between +6 and -6) | active | 0 (reduction <10 mm Hg) | – | 0 (if pD2 ≥6.81) | 6,05 -log CI50 (M) | – | – | – | – | – |
| COCCc1ccc(OCC(O)CNC(C)C)cc1 (stereo not drawn) [Metroprolol, reference compound] | – | – | – | – | – | – | – | – | – | – | – | – | 65 times |
